Source: EP2705856A1, “Compounds for the treatment of neurodegenerative disorders” (Deutsches Zentrum für Neurodegenerative Erkrankungen e.V., priority 2012, dated 2014)
Like-named read-outs stand apart in the source and are kept apart here.

Assays:
[1] = biological target: hFKBP12 (Homo sapiens, UniProt P62942); experiment: Protease-coupled PPIase assay, FKBP12; type: biochemical; conditions: Example 3; read-out: IC50 value, inhibition of PPlase activity of FKBP12
Experimental: The PPlase activity of hFKBP12 and hCypA was determined by using the protease-coupled PPlase assay as described by Fischer, H. Bang, B. Ludwig, K. Mann, J. Hacker, Mol. Microbiol. 1992, 6, 1375-1383. […] Then reaction was started by addition of 100 µg/mL of the isomer specific protease chymotrypsin, and the release of 4-nitroaniline was monitored by measuring the absorbance at 390 nm. […] Since tested PPlases vary in there catalytic efficiencies, different substrates has to be used to ensure equal rate constants of catalyzed cis/trans isomerization (Table 1). […] Table 1. Substrates for the respective PPlases

[2] = biological target: hCypA (Homo sapiens, UniProt P62937); experiment: Protease-coupled PPIase assay, CypA; type: biochemical
Chain of hCypA (P62937 whole entry): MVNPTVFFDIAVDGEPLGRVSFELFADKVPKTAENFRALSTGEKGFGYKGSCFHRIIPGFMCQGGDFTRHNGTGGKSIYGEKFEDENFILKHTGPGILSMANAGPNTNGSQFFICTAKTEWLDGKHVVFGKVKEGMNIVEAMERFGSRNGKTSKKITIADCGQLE
Experimental: The PPlase activity of hFKBP12 and hCypA was determined by using the protease-coupled PPlase assay as described by Fischer, H. Bang, B. Ludwig, K. Mann, J. Hacker, Mol. Microbiol. 1992, 6, 1375-1383. To study the effect of compounds 7-10 on PPlase activity, 100 nM of each hFKBP and 5 nM of each hCyp, respectively and 40 µM peptide substrate were preincubated in the presence or absence of various inhibitor concentrations for 6 min at 10 °C in 35mM HEPES/NaCl buffer (pH 7.5). Then reaction was started by addition of 100 µg/mL of the isomer specific protease chymotrypsin, and the release of 4-nitroaniline was monitored by measuring the absorbance at 390 nm. To achieve better comparability of compounds 7-10 effects on PPlase activity, the concentrations of FKBP and Cyp were kept constant at 100 nM and 5 nM, respectively. Since tested PPlases vary in there catalytic efficiencies, different substrates has to be used to ensure equal rate constants of catalyzed cis/trans isomerization (Table 1). […] Table 1. Substrates for the respective PPlases

Chain of hFKBP12 (P62942 whole entry): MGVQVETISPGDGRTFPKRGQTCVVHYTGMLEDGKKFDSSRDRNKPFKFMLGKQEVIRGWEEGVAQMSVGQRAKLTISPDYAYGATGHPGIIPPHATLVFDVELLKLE

| SMILES | IC50 [1] | IC50 ([2]; read-out: /C50-values, inhibition of PPlase activity of hCypA, Example 1, Figure 1: hCypA 5 nM, substrate suc-Ala-Ala-Pro-Phe-pNA) | IC50 ([2]; read-out: IC50 value, inhibition of CypA, Example 3) |
| --- | --- | --- | --- |
| C[C@@H]1C[C@@H]([C@H](O)CC2CC(=O)N(CC(=O)N(C)C)C(=O)C2)C(=O)[C@@H](C)C1 [DM-CHX, N-(N,N-Dimethylcarboxamidomethyl)cycloheximid] | 36.9 ± 17.1 nM |  |  |
| C/C=C/C[C@@H](C)[C@@H](O)[C@H]1C(=O)N[C@@H](CC)C(=O)N(C)CC(=O)N(C)[C@@H](CC(C)C)C(=O)N[C@@H](C(C)C)C(=O)N(C)[C@@H](CC(C)C)C(=O)N[C@@H](C)C(=O)N[C@H](CO)C(=O)N(C)[C@@H](CC(C)C)C(=O)N(C)[C@@H](CC(C)C)C(=O)N(C)[C@@H](C(C)C)C(=O)N1C [[D-Ser^8]-CsA] |  | 8.3 ± 1.4 nM | 1.5 ± 0.4 nM |
